What was measured:
[1] = system: LPS-induced acute kidney injury mouse models; assay: Lipopolysaccharide (LPS)-induced acute kidney disease models (Example 3); type: in vivo; details: FIG. 10
Procedure: After arrival and subsequent 7-day acclimation, the animals were randomly grouped. Except the animals in the control group, all other animals needed to be modeled by intraperitoneal injection with LPS. From day −2 to day 0, the mice in each group were administered by gavage, BID. On the day of modeling (day 0), the animals were intraperitoneally injected with LPS (12 mpk) post administration in the morning. Blood samples were collected after 24 h, and creatinine and urea nitrogen levels were measured.
(§1) The effects of the compounds on the kidney were then evaluated.

[2] = system: cisplatin-induced acute kidney injury mouse models; assay: Cisplatin-induced acute kidney disease models (Example 4); type: in vivo; details: for mortality rate of the mice: day 7 post modeling, same dosage (2.5 mg/kg oral BID per the 4th table), n=10
Procedure: After arrival and subsequent 7-day acclimation, the animals were randomly grouped. Except the animals in the control group, all other animals needed to be modeled by intraperitoneal injection with cisplatin. From day −3 to day 0, the mice in each group were administered BID. On the day of modeling (day 0), the animals were intraperitoneally injected with cisplatin (15 mg/kg) post administration in the morning. The dosing was continued until day 7. After the modeling, serum and urine samples were collected from the animals on day 4 and day 7, respectively, to measure the blood creatinine, urea nitrogen, and urinary albumin/creatinine (UACR) levels.
as §1

[3] = system: ischemia-reperfusion mouse models; assay: Ischemia-reperfusion models in mice (Examples 1 and 2); type: in vivo
Procedure: After arrival and subsequent 7-day acclimation, the animals were randomly grouped. Except the animals in the control group, all other animals needed to be modeled. On day −1, the mice in each group were administered by gavage twice a day (BID). On the day of surgery (day 0), the mice underwent surgery post administration in the morning. On day 1, the dosing was continued, and on day 2, the endpoint treatment was performed. The mice were subjected to blood collection 24 hours and 48 hours post surgery, and for the endpoint treatment, their kidneys were taken and fixed in a formaldehyde solution for subsequent HE pathological detection.
The specific steps of the ischemia-reperfusion surgery were as follows: the mice were anesthetized with 4% chloral hydrate (10 ml/kg, ip) and secured in a prone position. An incision was made on the back and the right kidney was isolated while ensuring that the adrenal gland and ureter were not injured. The renal artery and renal vein were ligated and the right kidney was excised. The left kidney was isolated, and the renal arterial and venous tracts were carefully separated and clipped for 30 min using a mini bulldog clamp, and then the clamp was loosened. The skin was sutured layer by layer with a needle and thread, and the mice were returned to their cages for recovery.
as §1

Janus kinase subtype 1 = Janus kinase subtype 1 (Homo sapiens, UniProt P23458); details: background statement, no data; cited from earlier work
Chain of Janus kinase subtype 1 (P23458 whole entry): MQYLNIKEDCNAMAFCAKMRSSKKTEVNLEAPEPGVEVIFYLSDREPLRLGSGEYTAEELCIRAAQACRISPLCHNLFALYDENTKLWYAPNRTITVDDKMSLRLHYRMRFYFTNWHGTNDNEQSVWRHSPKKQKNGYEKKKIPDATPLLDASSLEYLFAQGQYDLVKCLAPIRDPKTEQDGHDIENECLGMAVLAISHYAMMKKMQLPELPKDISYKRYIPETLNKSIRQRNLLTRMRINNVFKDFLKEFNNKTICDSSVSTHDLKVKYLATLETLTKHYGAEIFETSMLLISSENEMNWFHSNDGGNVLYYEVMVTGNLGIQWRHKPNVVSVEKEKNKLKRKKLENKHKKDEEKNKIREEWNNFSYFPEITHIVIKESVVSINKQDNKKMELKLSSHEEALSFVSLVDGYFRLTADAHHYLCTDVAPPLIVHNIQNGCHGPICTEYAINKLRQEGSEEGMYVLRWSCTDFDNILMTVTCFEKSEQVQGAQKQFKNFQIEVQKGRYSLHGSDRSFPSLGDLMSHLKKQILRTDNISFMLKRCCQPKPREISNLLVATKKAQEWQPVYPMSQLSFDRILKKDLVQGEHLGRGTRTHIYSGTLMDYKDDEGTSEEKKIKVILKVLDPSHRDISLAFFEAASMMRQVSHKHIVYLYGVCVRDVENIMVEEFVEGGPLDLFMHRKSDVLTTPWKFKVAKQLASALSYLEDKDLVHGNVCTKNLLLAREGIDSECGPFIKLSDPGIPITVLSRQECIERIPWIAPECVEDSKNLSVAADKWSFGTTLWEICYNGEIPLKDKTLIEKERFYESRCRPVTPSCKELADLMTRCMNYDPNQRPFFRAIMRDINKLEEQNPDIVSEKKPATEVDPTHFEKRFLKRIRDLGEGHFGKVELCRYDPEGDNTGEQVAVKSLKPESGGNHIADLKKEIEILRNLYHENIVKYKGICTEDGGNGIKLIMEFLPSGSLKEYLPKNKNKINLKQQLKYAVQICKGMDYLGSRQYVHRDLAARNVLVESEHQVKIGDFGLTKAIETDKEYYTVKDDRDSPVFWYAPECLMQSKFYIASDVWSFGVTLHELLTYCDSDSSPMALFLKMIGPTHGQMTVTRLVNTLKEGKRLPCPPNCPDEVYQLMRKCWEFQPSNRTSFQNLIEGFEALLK

Structure (SMILES) | kidney protective functions, 5 mpk and 10 mpk compared with 2.5 mpk group ([1]; 5 mpk and 10 mpk oral BID) | blood creatinine and urea nitrogen levels induced by LPS ([1]; different dosage groups (2.5, 5, 10 mg/kg oral BID), 24 h after LPS 12 mpk ip) | blood creatinine and urinary albumin levels induced by cisplatin ([2]; 1.25, 2.5, 5 mg/kg oral BID, cisplatin 15 mg/kg ip, FIG. 11) | blood creatinine, blood urea nitrogen, urinary albumin/creatinine ratio, significance ([2]; 2.5 mpk and 5 mpk oral BID, FIG. 11) | kidney protective functions compared with compound B ([2]; cisplatin models, FIG. 11) | mortality rate of the mice [2] [%] | mortality of the mice ([2]; different dosages (1.25, 2.5, 5 mg/kg oral BID), model group 100% dead on day 6) | kidney/body weight ratio (renal compensatory hypertrophy) ([3]; Example 1, 10 mg/kg oral BID, 48 hours post modeling, FIG. 6) | improvement of kidney/body weight ratio compared with compound B ([3]; Example 1, 10 mg/kg oral BID, FIG. 6) | body weight reduction caused by ischemia-reperfusion ([3]; Example 1, 10 mg/kg oral BID, compared with compound B at the same dosage, FIG. 5) | kidney HE pathological scores ([3]; Example 1, 10 mg/kg oral BID, scores 0-3, FIG. 9) | blood creatinine and urea nitrogen, difference from the model group ([3]; Example 2, 5 mpk and 10 mpk oral BID, FIG. 8) | renal hypertrophy, difference from the model group ([3]; Example 2, 5 mpk oral BID, FIG. 7) | renal hypertrophy caused by ischemia-reperfusion (kidney/body weight ratio) ([3]; Example 2, all dosage groups 2.5 mpk, 5 mpk and 10 mpk oral BID, FIG. 7) | blood creatinine and urea nitrogen levels ([3]; Example 2, all dosage groups 2.5 mpk, 5 mpk and 10 mpk oral BID, FIG. 8) | blood creatinine and urea nitrogen, protective effect compared with compound B ([3]; Example 2, same dosage (5 mg/kg oral BID), FIG. 8) | overall kidney protective effect compared with compound B ([3]; Examples 1 and 2) | overall kidney protective effect (mortality, renal hypertrophy, kidney pathology, blood biochemical parameters) ([3]; Examples 1 and 2, compared with the model group) | inhibitory activity against Janus kinase subtype 1 relative to subtype 2 or subtype 3 (selectivity) (Janus kinase subtype 1)
COc1nsc(NC(=O)N2C[C@H]3C[C@H](N(C)c4ncnc5[nH]ccc45)C[C@H]3C2)n1 [Compound A, (3 aR,5 s,6aS)—N-(3-methoxy-1,2,4-thiadiazol-5-yl)-5-(methyl(7H-pyrrolo[2,3-d]pyrimidin-4-yl)amino)hexahydrocyclopenta[c]pyrrole-2(1H)-carb oxamide] | Stronger kidney protective functions | significantly alleviated the increase in blood creatinine and urea nitrogen levels | dose-dependently alleviated the increase in blood creatinine and urinary albumin levels | showed significant differences | exhibited stronger kidney protective functions | 40 | significantly decreased the mortality | decreased kidney/body weight ratios | had some advantages in improving the kidney/body weight ratios | smaller decrease in body weight | significantly improved the kidney HE pathological scores | showed significant differences compared with the model group | significant difference | could reduce the renal hypertrophy | alleviated the increase in blood creatinine and urea nitrogen levels | stronger protective effect compared with compound B | more excellent kidney protective effect | exhibited kidney protective effects | stronger inhibitory activity against Janus kinase subtype 1 relative to Janus kinase subtype 2 or Janus kinase subtype 3
CCS(=O)(=O)N1CC(CC#N)(n2cc(-c3ncnc4[nH]ccc34)cn2)C1 [Compound B, Baricitinib, reference compound] | – | – | – | – | – | 80 | – | – | – | – | – | – | – | – | – | – | – | – | –
